Results: patent US20210353564A1, “TREATMENTS FOR ZIKA VIRUS INFECTION” (Saint Louis University, priority 2018, published 2021)
Counter-ions that a name gives are not always drawn.

How the values were obtained:
[1] = tested on: Zika virus; test: Focus Forming Assay, Vero cells drugged at T-1, T0, T1, T8, T12 relative to addition of virus; format: cell-based; conditions: for change of EC50 with time of compound addition: addition T-1 to T12 relative to virus; for effect on Zika virus replication (focus count): remaining virus after 39 hours
Method: FIGS. 3-14. Focus Forming Assay. Data represent Vero cells drugged with SERM compounds an hour before addition of virus (T-1), upon addition of virus (T0), one hour after addition of virus (T1), eight hours after addition of virus (T8), and twelve hours after addition of virus. Each compound was screened as triplicate measurements and performed in duplicate. The data is shown as focus count (normalized to the control wells) which represents the amount of remaining virus after 39 hours as a function of log concentration.

[2] = tested on: calmodulin-activated PDE; conditions: cited from earlier work
[3] = molecular target: T1, ERa (Homo sapiens, UniProt P03372); conditions: cited from earlier work
T1 sequence (P03372 1-595): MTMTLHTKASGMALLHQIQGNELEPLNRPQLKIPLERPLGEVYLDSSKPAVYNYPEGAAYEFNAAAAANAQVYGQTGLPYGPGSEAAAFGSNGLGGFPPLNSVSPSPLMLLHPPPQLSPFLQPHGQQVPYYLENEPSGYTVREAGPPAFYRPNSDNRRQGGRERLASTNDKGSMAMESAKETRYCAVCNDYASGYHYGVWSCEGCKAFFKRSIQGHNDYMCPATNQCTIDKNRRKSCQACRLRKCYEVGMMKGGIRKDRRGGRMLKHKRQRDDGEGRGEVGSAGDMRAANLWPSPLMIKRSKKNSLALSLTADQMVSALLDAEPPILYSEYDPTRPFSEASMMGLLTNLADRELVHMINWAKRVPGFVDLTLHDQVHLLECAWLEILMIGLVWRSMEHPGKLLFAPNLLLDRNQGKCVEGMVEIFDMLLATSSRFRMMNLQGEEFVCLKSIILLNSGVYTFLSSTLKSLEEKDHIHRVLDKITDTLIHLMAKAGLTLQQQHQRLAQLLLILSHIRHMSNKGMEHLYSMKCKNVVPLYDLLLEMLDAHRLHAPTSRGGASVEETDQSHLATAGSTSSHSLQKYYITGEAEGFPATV

[4] = tested on: ERa-mediated gene transcription; conditions: cited from earlier work
[5] = tested on: HCV; conditions: cited from earlier work
[6] = after two years, only tamoxifen; cited from earlier work
[7] = tested on: ZIKV strain PRVABC59; test: focus reduction test of ZIKV on Vero cells; conditions: focus reduction test (FIG. 1B)
From the text: Average+/−StdDev from three independent experiments done in duplicate.

[8] = tested on: Ca2+-mediated cytotoxicity and apoptosis; conditions: cited from earlier work
[9] = average 4-year follow-up; difference not statistically significant; cited from earlier work

| Compound | change of EC50 with time of compound addition [1] | effect on Zika virus replication (focus count) [1] | also measured |
| --- | --- | --- | --- |
| Cl.NCCCCCCCCCCNS(=O)(=O)c1cccc2c(Cl)cccc12 [A-7] | EC50 increases from T1 to T8 | prevents viral replication | effect on Zika virus replication (focus count) ([1]; listed as A-7 Hydrochloride): impedes viral replication; IC50 [2]: 3 µM |
| Oc1ccc([C@H]2COc3cc(O)ccc3C2)cc1 [(S)-Equol, (S)-equol] | EC50 increases from T8 to T12 | diminishes viral replication |  |
| CCCCCCCCCCCCCC(=O)O[C@@H]1[C@@H](C)[C@@]2(O)[C@@H](C=C(CO)C[C@]3(O)C(=O)C(C)=C[C@@H]23)[C@@H]2C(C)(C)[C@]12OC(C)=O [PMA, phorbol-12-myristate-13-acetate] | EC50 increases from T8 to T12 | diminishes viral replication |  |
| Methylpiperidinopyrazole [MPP] |  |  | selectivity for ERa over ERβ [3]: 200 fold; selectivity for blocking ERa-mediated gene transcription relative to that of ERβ [4]: 1000 fold |
| C[C@]12CC[C@@H]3c4ccc(O)cc4C[C@@H](CCCCCCCCC[S+]([O-])CCCC(F)(F)C(F)(F)F)[C@H]3[C@@H]1CC[C@@H]2O (stereo partly drawn) [ICI182780] |  |  | effect on HCV genome replication [5]: able to inhibit HCV genome replication; toxicity in the HCV replication study [5]: without any apparent toxicity |
| CC/C(=C(\c1ccccc1)c1ccc(OCCN(C)C)cc1)c1ccccc1 [TAM, Tamoxifen] |  |  | women with a recurrence [6]: 7.5%; effect on HCV genome replication [5]: able to inhibit HCV genome replication; toxicity in the HCV replication study [5]: without any apparent toxicity; antiviral activity against ZIKV grown in Vero cells [7]: antiviral activity |
| CC/C(=C(\c1ccccc1)c1ccc(OCCN(C)C)cc1)c1ccccc1 [Tamoxifen citrate] | EC50 increases from T1 to T8 | prevents viral replication |  |
| C[C@H]1CCCC(=O)CCCCCc2cc(O)cc(O)c2C(=O)O1 [Zearalanone] |  | no effect |  |
| VAITVLVK [CALP-1] |  | increase viral growth during some of the assays | IC50 [8]: 52 µM |
| O=C(c1ccc(OCCN2CCCCC2)cc1)c1c(-c2ccc(O)cc2)sc2cc(O)ccc12 [raloxifene] |  |  | fewer blood clots than in women taking tamoxifen [9]: 29%; fewer uterine cancers than in women taking tamoxifen [9]: 36% |
| O=c1c(-c2ccc(O)cc2)coc2cc(O)cc(O)c12 [Genistein] |  | no effect |  |
| COc1cc2c(cc1OC)CN(CCc1ccc(NC(=O)c3cc(OC)c(OC)cc3NC(=O)c3cnc4ccccc4c3)cc1)CC2 [Tariquidar] | EC50 does not change substantially from T-1 to T12 | prevents viral replication |  |
| O=c1c(-c2ccc(O)cc2)coc2cc(O)ccc12 [Daidzein] |  | no effect |  |
